Laboratory results reported in PubChem BioAssay (NCI).
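These data come from cells grown in 96-well plates and exposed to compound for 48 hours at five concentrations. The concentration for full growth arrest is given as TGI.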

Assays:
Assay in all cases: NCI tumour cell line growth inhibition, 48 h
MDA-MB-435 = test system: MDA-MB-435
SF-539 CNS = test system: SF-539 CNS
MOLT-4 leukemia = test system: MOLT-4 leukemia
UO-31 renal = test system: UO-31 renal
K-562 leukemia = test system: K-562 leukemia
COLO 205 colon = test system: COLO 205 colon
SK-OV-3 ovarian = test system: SK-OV-3 ovarian
OVCAR-8 ovarian = test system: OVCAR-8 ovarian
RXF 393 renal = test system: RXF 393 renal
OVCAR-3 ovarian = test system: OVCAR-3 ovarian
786-0 renal = test system: 786-0 renal
HS 578T breast = test system: HS 578T breast
HL-60(TB) leukemia = test system: HL-60(TB) leukemia
SW-620 colon = test system: SW-620 colon
NCI-H23 lung = test system: NCI-H23 lung
DU-145 prostate = test system: DU-145 prostate
RPMI-8226 leukemia = test system: RPMI-8226 leukemia
OVCAR-4 ovarian = test system: OVCAR-4 ovarian
ACHN renal = test system: ACHN renal
PC-3 prostate = test system: PC-3 prostate
NCI-H522 lung = test system: NCI-H522 lung
SK-MEL-5 melanoma = test system: SK-MEL-5 melanoma
MDA-N = test system: MDA-N
UACC-257 melanoma = test system: UACC-257 melanoma
HOP-92 NSCLC = test system: HOP-92 NSCLC
NCI-H226 lung = test system: NCI-H226 lung
A498 renal = test system: A498 renal
NCI/ADR-RES ovarian = test system: NCI/ADR-RES ovarian
M14 melanoma = test system: M14 melanoma
U251 CNS = test system: U251 CNS
SNB-19 CNS = test system: SNB-19 CNS
SK-MEL-28 melanoma = test system: SK-MEL-28 melanoma
EKVX NSCLC = test system: EKVX NSCLC
HOP-62 NSCLC = test system: HOP-62 NSCLC
IGROV1 ovarian = test system: IGROV1 ovarian
HCT-15 colon = test system: HCT-15 colon
SK-MEL-2 melanoma = test system: SK-MEL-2 melanoma
MDA-MB-231 breast = test system: MDA-MB-231 breast
A549 NSCLC = test system: A549 NSCLC
MALME-3M melanoma = test system: MALME-3M melanoma
BT-549 breast = test system: BT-549 breast
SF-268 CNS = test system: SF-268 CNS
KM12 colon = test system: KM12 colon
SF-295 CNS = test system: SF-295 CNS
OVCAR-5 ovarian = test system: OVCAR-5 ovarian
SR leukemia = test system: SR leukemia
HCT-116 colon = test system: HCT-116 colon
HT29 colon = test system: HT29 colon
CAKI-1 renal = test system: CAKI-1 renal
SN12C renal = test system: SN12C renal
CCRF-CEM leukemia = test system: CCRF-CEM leukemia
LOX IMVI melanoma = test system: LOX IMVI melanoma
NCI-H460 lung = test system: NCI-H460 lung
UACC-62 melanoma = test system: UACC-62 melanoma
MCF7 breast = test system: MCF7 breast
TK-10 renal = test system: TK-10 renal
SNB-75 CNS = test system: SNB-75 CNS
HCC-2998 colon = test system: HCC-2998 colon

CCC(=O)O[C@H]1CC[C@H]2[C@@H]3CCC4=CC(=O)C=C[C@]4(O)[C@H]3CC[C@]12C
TGI (MDA-MB-435): 10.2 µM | TGI (SF-539 CNS): > 100 µM | TGI (MOLT-4 leukemia): > 100 µM | TGI (UO-31 renal): > 100 µM | TGI (K-562 leukemia): > 100 µM | TGI (COLO 205 colon): > 100 µM | TGI (SK-OV-3 ovarian): > 100 µM | TGI (OVCAR-8 ovarian): > 100 µM | TGI (RXF 393 renal): 52.4 µM | TGI (OVCAR-3 ovarian): 68.4 µM | TGI (786-0 renal): > 100 µM | TGI (HS 578T breast): > 100 µM | TGI (HL-60(TB) leukemia): 37.6 µM | TGI (SW-620 colon): > 100 µM | TGI (NCI-H23 lung): > 100 µM | TGI (DU-145 prostate): 64.5 µM | TGI (RPMI-8226 leukemia): > 100 µM | TGI (OVCAR-4 ovarian): > 100 µM | TGI (ACHN renal): > 100 µM | TGI (PC-3 prostate): 81.4 µM | TGI (NCI-H522 lung): > 100 µM | TGI (SK-MEL-5 melanoma): 19.9 µM | TGI (MDA-N): > 100 µM | TGI (UACC-257 melanoma): 26.8 µM | TGI (HOP-92 NSCLC): 82.1 µM | TGI (NCI-H226 lung): > 100 µM | TGI (A498 renal): > 100 µM | TGI (NCI/ADR-RES ovarian): 91.9 µM | TGI (M14 melanoma): > 100 µM | TGI (U251 CNS): 47.4 µM | TGI (SNB-19 CNS): > 100 µM | TGI (SK-MEL-28 melanoma): > 100 µM | TGI (EKVX NSCLC): > 100 µM | TGI (HOP-62 NSCLC): > 100 µM | TGI (IGROV1 ovarian): > 100 µM | TGI (HCT-15 colon): > 100 µM | TGI (SK-MEL-2 melanoma): 45.8 µM | TGI (MDA-MB-231 breast): 58.5 µM | TGI (A549 NSCLC): > 100 µM | TGI (MALME-3M melanoma): > 100 µM | TGI (BT-549 breast): 57.5 µM | TGI (SF-268 CNS): > 100 µM | TGI (KM12 colon): 85.1 µM | TGI (SF-295 CNS): > 100 µM | TGI (OVCAR-5 ovarian): > 100 µM | TGI (SR leukemia): 80.5 µM | TGI (HCT-116 colon): > 100 µM | TGI (HT29 colon): 58.4 µM | TGI (CAKI-1 renal): 88.4 µM | TGI (SN12C renal): > 100 µM | TGI (CCRF-CEM leukemia): 17.2 µM | TGI (LOX IMVI melanoma): 69.5 µM | TGI (NCI-H460 lung): 44.5 µM | TGI (UACC-62 melanoma): > 100 µM | TGI (MCF7 breast): > 100 µM | TGI (TK-10 renal): > 100 µM

O=C(CN1CCN(c2ccccc2)CC1)c1ccc2[nH]c(=O)oc2c1
TGI (MDA-MB-435): > 100 µM | TGI (SF-539 CNS): > 100 µM | TGI (MOLT-4 leukemia): > 100 µM | TGI (K-562 leukemia): > 100 µM | TGI (COLO 205 colon): > 100 µM | TGI (SK-OV-3 ovarian): > 100 µM | TGI (OVCAR-8 ovarian): > 100 µM | TGI (RXF 393 renal): > 100 µM | TGI (OVCAR-3 ovarian): > 100 µM | TGI (786-0 renal): > 100 µM | TGI (HS 578T breast): > 100 µM | TGI (SNB-75 CNS): > 100 µM | TGI (HL-60(TB) leukemia): > 100 µM | TGI (SW-620 colon): > 100 µM | TGI (NCI-H23 lung): > 100 µM | TGI (DU-145 prostate): > 100 µM | TGI (RPMI-8226 leukemia): > 100 µM | TGI (ACHN renal): > 100 µM | TGI (PC-3 prostate): > 100 µM | TGI (MDA-N): > 100 µM | TGI (UACC-257 melanoma): > 100 µM | TGI (NCI-H226 lung): > 100 µM | TGI (A498 renal): > 100 µM | TGI (NCI/ADR-RES ovarian): > 100 µM | TGI (M14 melanoma): > 100 µM | TGI (U251 CNS): > 100 µM | TGI (SK-MEL-28 melanoma): > 100 µM | TGI (EKVX NSCLC): > 100 µM | TGI (HOP-62 NSCLC): > 100 µM | TGI (IGROV1 ovarian): > 100 µM | TGI (HCT-15 colon): > 100 µM | TGI (SK-MEL-2 melanoma): > 100 µM | TGI (MDA-MB-231 breast): > 100 µM | TGI (MALME-3M melanoma): > 100 µM | TGI (BT-549 breast): > 100 µM | TGI (SF-268 CNS): > 100 µM | TGI (KM12 colon): > 100 µM | TGI (SF-295 CNS): > 100 µM | TGI (OVCAR-5 ovarian): > 100 µM | TGI (SR leukemia): > 100 µM | TGI (HCT-116 colon): > 100 µM | TGI (HT29 colon): > 100 µM | TGI (CAKI-1 renal): > 100 µM | TGI (SN12C renal): > 100 µM | TGI (CCRF-CEM leukemia): > 100 µM | TGI (LOX IMVI melanoma): > 100 µM | TGI (NCI-H460 lung): > 100 µM | TGI (UACC-62 melanoma): > 100 µM | TGI (MCF7 breast): > 100 µM | TGI (TK-10 renal): > 100 µM

Cc1ccc2nc(-n3c(/C=C/c4ccccc4O)nc4ccccc4c3=O)sc2c1
TGI (MDA-MB-435): > 100 µM | TGI (MOLT-4 leukemia): > 100 µM | TGI (UO-31 renal): > 100 µM | TGI (K-562 leukemia): > 100 µM | TGI (COLO 205 colon): > 100 µM | TGI (SK-OV-3 ovarian): > 100 µM | TGI (OVCAR-8 ovarian): > 100 µM | TGI (HCC-2998 colon): > 100 µM | TGI (RXF 393 renal): > 100 µM | TGI (OVCAR-3 ovarian): > 100 µM | TGI (786-0 renal): > 100 µM | TGI (HS 578T breast): > 100 µM | TGI (SNB-75 CNS): > 100 µM | TGI (HL-60(TB) leukemia): > 100 µM | TGI (SW-620 colon): > 100 µM | TGI (NCI-H23 lung): > 100 µM | TGI (DU-145 prostate): > 100 µM | TGI (RPMI-8226 leukemia): > 100 µM | TGI (OVCAR-4 ovarian): > 100 µM | TGI (ACHN renal): > 100 µM | TGI (PC-3 prostate): > 100 µM | TGI (NCI-H522 lung): > 100 µM | TGI (SK-MEL-5 melanoma): > 100 µM | TGI (MDA-N): > 100 µM | TGI (UACC-257 melanoma): > 100 µM | TGI (HOP-92 NSCLC): > 100 µM | TGI (NCI-H226 lung): > 100 µM | TGI (A498 renal): > 100 µM | TGI (NCI/ADR-RES ovarian): > 100 µM | TGI (M14 melanoma): > 100 µM | TGI (U251 CNS): > 100 µM | TGI (SNB-19 CNS): > 100 µM | TGI (SK-MEL-28 melanoma): > 100 µM | TGI (EKVX NSCLC): > 100 µM | TGI (HOP-62 NSCLC): > 100 µM | TGI (IGROV1 ovarian): > 100 µM | TGI (HCT-15 colon): > 100 µM | TGI (SK-MEL-2 melanoma): > 100 µM | TGI (MDA-MB-231 breast): > 100 µM | TGI (A549 NSCLC): > 100 µM | TGI (BT-549 breast): > 100 µM | TGI (KM12 colon): > 100 µM | TGI (SF-295 CNS): > 100 µM | TGI (OVCAR-5 ovarian): > 100 µM | TGI (HCT-116 colon): > 100 µM | TGI (HT29 colon): > 100 µM | TGI (CAKI-1 renal): > 100 µM | TGI (CCRF-CEM leukemia): > 100 µM | TGI (LOX IMVI melanoma): > 100 µM | TGI (NCI-H460 lung): > 100 µM | TGI (UACC-62 melanoma): > 100 µM | TGI (MCF7 breast): > 100 µM | TGI (TK-10 renal): > 100 µM
